Species on record: Rattus norvegicus
Experiment: DrugMatrix - Regimen: Daily Repeat
Format: toxicity, organism-based, Sprague-Dawley
Design: regimen Daily Repeat, gender Male, age 6-8 weeks
Conditions: in vivo, vehicle 100 % SALINE; for ABSOLUTE BASOPHIL / ABSOLUTE EOSINOPHIL / ABSOLUTE LYMPHOCYTE / ABSOLUTE MONOCYTE / BASOPHIL / EOSINOPHIL / ERYTHROCYTE COUNT / HEMATOCRIT / HEMOGLOBIN / LEUKOCYTE COUNT / LYMPHOCYTE / MEAN CORPUSCULAR HEMOGLOBIN / MEAN CORPUSCULAR HEMOGLOBIN CONCENTRATION / MEAN CORPUSCULAR VOLUME / MONOCYTE / NEUTROPHIL / NUCLEATED RED BLOOD CELLS / PLATELET COUNT: tissue Blood
[1] = ip, 0.5 mg/kg, […], tissue Plasma, route intraperitoneal, dose level High, time 28 day
[2] = iv, 0 mg/kg, 72 h, dose level Control, time 3 day
[3] = iv, 0 mg/kg, 72 h, tissue Plasma, dose level Control, time 3 day
[4] = iv, 0 mg/kg, 120 h, dose level Control, time 5 day
[5] = iv, 0 mg/kg, 120 h, tissue Plasma, dose level Control, time 5 day
[6] = iv, 2 mg/kg, 72 h, dose level High, time 3 day
[7] = iv, 2 mg/kg, 72 h, tissue Plasma, dose level High, time 3 day
[8] = iv, 2 mg/kg, 120 h, dose level High, time 5 day
[9] = iv, 2 mg/kg, 120 h, tissue Plasma, dose level High, time 5 day

CISPLATIN
ALKALINE PHOSPHATASE [1]: 134.22 u/L | ASPARTATE AMINOTRANSFERASE [1]: 78.67 u/L | BLOOD UREA NITROGEN [1]: 25 mg/dL | CHOLESTEROL [1]: 63.11 mg/dL | CREATININE [1]: 0.82 mg/dL | GLUCOSE [1]: 108.67 mg/dL | LACTATE DEHYDROGENASE [1]: 80.89 u/L | LIPASE [1]: 18.22 u/L | PHOSPHORUS [1]: 9.11 mg/dL | POTASSIUM [1]: 6.18 MEQ/L | SODIUM [1]: 151.78 MEQ/L | TOTAL BILIRUBIN [1]: 0.29 mg/dL | URIC ACID [1]: 1.11 mg/dL | ABSOLUTE BASOPHIL [2]: 0 CELLS/uL | ABSOLUTE EOSINOPHIL [2]: 0 CELLS/uL | ABSOLUTE LYMPHOCYTE [2]: 7026.17 CELLS/uL | ABSOLUTE MONOCYTE [2]: 44.33 CELLS/uL | BASOPHIL [2]: 0% | EOSINOPHIL [2]: 0% | ERYTHROCYTE COUNT [2]: 5.49 x10E6/uL | HEMATOCRIT [2]: 33.67% | HEMOGLOBIN [2]: 13.17 G/DL | LEUKOCYTE COUNT [2]: 7.45 x10E3/uL | LYMPHOCYTE [2]: 94% | MEAN CORPUSCULAR HEMOGLOBIN [2]: 24.03 pg | MEAN CORPUSCULAR HEMOGLOBIN CONCENTRATION [2]: 39.15 G/DL | MEAN CORPUSCULAR VOLUME [2]: 61.4 fL | MONOCYTE [2]: 0.67% | NEUTROPHIL [2]: 5.33% | NUCLEATED RED BLOOD CELLS [2]: 0.17 /100WBC | PLATELET COUNT [2]: 1062.5 x10E3/uL | ALANINE AMINOTRANSFERASE [3]: 53.17 u/L | ALKALINE PHOSPHATASE [3]: 339.83 u/L | ASPARTATE AMINOTRANSFERASE [3]: 83.33 u/L | BLOOD UREA NITROGEN [3]: 16 mg/dL | CARBON DIOXIDE [3]: 32.5 mmol/L | CHLORIDE [3]: 98 MEQ/L | CHOLESTEROL [3]: 74.67 mg/dL | CREATININE [3]: 0.2 mg/dL | GLUCOSE [3]: 128.67 mg/dL | LACTATE DEHYDROGENASE [3]: 110.33 u/L | LIPASE [3]: 9 u/L | PHOSPHORUS [3]: 11.73 mg/dL | POTASSIUM [3]: 6.34 MEQ/L | TOTAL BILIRUBIN [3]: 0.18 mg/dL | URIC ACID [3]: 1.28 mg/dL | ABSOLUTE BASOPHIL [4]: 0 CELLS/uL | ABSOLUTE EOSINOPHIL [4]: 26.67 CELLS/uL | ABSOLUTE LYMPHOCYTE [4]: 8334.17 CELLS/uL | ABSOLUTE MONOCYTE [4]: 29.5 CELLS/uL | BASOPHIL [4]: 0% | EOSINOPHIL [4]: 0.33% | ERYTHROCYTE COUNT [4]: 5.44 x10E6/uL | HEMATOCRIT [4]: 33.77% | HEMOGLOBIN [4]: 13.05 G/DL | LEUKOCYTE COUNT [4]: 8.98 x10E3/uL | LYMPHOCYTE [4]: 92.33% | MEAN CORPUSCULAR HEMOGLOBIN [4]: 24 pg | MEAN CORPUSCULAR HEMOGLOBIN CONCENTRATION [4]: 38.67 G/DL | MEAN CORPUSCULAR VOLUME [4]: 62.05 fL | MONOCYTE [4]: 0.33% | NEUTROPHIL [4]: 7% | NUCLEATED RED BLOOD CELLS [4]: 0 /100WBC | PLATELET COUNT [4]: 987 x10E3/uL | ALANINE AMINOTRANSFERASE [5]: 43.5 u/L | ALKALINE PHOSPHATASE [5]: 310.17 u/L | ASPARTATE AMINOTRANSFERASE [5]: 76.67 u/L | BLOOD UREA NITROGEN [5]: 17 mg/dL | CHLORIDE [5]: 100.33 MEQ/L | CHOLESTEROL [5]: 69.33 mg/dL | CREATININE [5]: 0.22 mg/dL | GLUCOSE [5]: 155.17 mg/dL | PHOSPHORUS [5]: 11.2 mg/dL | POTASSIUM [5]: 5.5 MEQ/L | TOTAL BILIRUBIN [5]: 0.18 mg/dL | URIC ACID [5]: 0.88 mg/dL | ABSOLUTE BASOPHIL [6]: 0 CELLS/uL | ABSOLUTE EOSINOPHIL [6]: 0 CELLS/uL | ABSOLUTE LYMPHOCYTE [6]: 6398.67 CELLS/uL | ABSOLUTE MONOCYTE [6]: 72 CELLS/uL | BASOPHIL [6]: 0% | EOSINOPHIL [6]: 0% | ERYTHROCYTE COUNT [6]: 5.34 x10E6/uL | HEMATOCRIT [6]: 33.2% | HEMOGLOBIN [6]: 13.07 G/DL | LEUKOCYTE COUNT [6]: 6.77 x10E3/uL | LYMPHOCYTE [6]: 94.67% | MONOCYTE [6]: 1% | NEUTROPHIL [6]: 4.33% | NUCLEATED RED BLOOD CELLS [6]: 0 /100WBC | PLATELET COUNT [6]: 1193.33 x10E3/uL | ALANINE AMINOTRANSFERASE [7]: 59.33 u/L | ALKALINE PHOSPHATASE [7]: 321.33 u/L | ASPARTATE AMINOTRANSFERASE [7]: 83.33 u/L | BLOOD UREA NITROGEN [7]: 45.67 mg/dL | CARBON DIOXIDE [7]: 28 mmol/L | CHLORIDE [7]: 98.67 MEQ/L | CHOLESTEROL [7]: 63.33 mg/dL | CREATININE [7]: 0.81 mg/dL | GLUCOSE [7]: 165.67 mg/dL | LACTATE DEHYDROGENASE [7]: 157 u/L | LIPASE [7]: 8.33 u/L | PHOSPHORUS [7]: 9.77 mg/dL | POTASSIUM [7]: 5.3 MEQ/L | TOTAL BILIRUBIN [7]: 0.3 mg/dL | URIC ACID [7]: 0.97 mg/dL | ABSOLUTE BASOPHIL [8]: 0 CELLS/uL | ABSOLUTE EOSINOPHIL [8]: 0 CELLS/uL | ABSOLUTE LYMPHOCYTE [8]: 6841 CELLS/uL | ABSOLUTE MONOCYTE [8]: 28.67 CELLS/uL | BASOPHIL [8]: 0% | EOSINOPHIL [8]: 0% | ERYTHROCYTE COUNT [8]: 5.89 x10E6/uL | HEMOGLOBIN [8]: 14.03 G/DL | LEUKOCYTE COUNT [8]: 7.07 x10E3/uL | LYMPHOCYTE [8]: 97% | MEAN CORPUSCULAR HEMOGLOBIN [8]: 23.87 pg | MEAN CORPUSCULAR HEMOGLOBIN CONCENTRATION [8]: 39.17 G/DL | MONOCYTE [8]: 0.33% | NEUTROPHIL [8]: 2.67% | NUCLEATED RED BLOOD CELLS [8]: 0 /100WBC | PLATELET COUNT [8]: 1329.67 x10E3/uL | ALANINE AMINOTRANSFERASE [9]: 52 u/L | ALKALINE PHOSPHATASE [9]: 249 u/L | ASPARTATE AMINOTRANSFERASE [9]: 79.33 u/L | BLOOD UREA NITROGEN [9]: 37.67 mg/dL | CHLORIDE [9]: 100 MEQ/L | CHOLESTEROL [9]: 80 mg/dL | CREATININE [9]: 0.65 mg/dL | GLUCOSE [9]: 137.33 mg/dL | LACTATE DEHYDROGENASE [9]: 134.33 u/L | LIPASE [9]: 11.67 u/L | PHOSPHORUS [9]: 9.43 mg/dL | POTASSIUM [9]: 5.31 MEQ/L | TOTAL BILIRUBIN [9]: 0.17 mg/dL | URIC ACID [9]: 0.67 mg/dL

Reference: ChEMBL document CHEMBL3885881, “DrugMatrix”
